Source: patent publication US10799495B2, “Aaptamine alkaloid derivatives and synthesis method and application thereof” (RENJI HOSPITAL, SHANGHAI JIAO TONG UNIVERSITY SCHOOL OF …, priority 2017, dated 2020)
Values after ≈ are worked out from the molar mass of the structure shown. Where two headings read alike, the source gives them in different places.

Tests used:
Type in all cases: cell-based
[1] = test system: human lung cancer stem cell PC9-Nanog; experiment: In vitro anti-lung cancer stem cell test (CCK-8 cell viability), PC9-Nanog; details: read-out: Half effective inhibitory concentration IC50 against tumor cells
Protocol: (§1) In vitro anti-lung cancer stem cell test is carried out on the compounds AAP-1-6 of the present invention, and the lung cancer stem cell lines used are as follows:
(§2) Human lung cancer cell PC9 is purchased from ATCC with ATCC number 32727.
(§3) In addition, Oct4-GFP and Nanog-GFP are highly expressed by lentivirus transfection.
(§4) The original cell culture medium for Human lung cancer stem cells PC9-Nanog and PC9-Oct4 is discarded, 3 mL of PBS is added to rinse the cells twice; 500 μL of 0.25% trypsin is then added for digestion for 3 minutes at 37° C.; and 3 mL of a complete medium is added to terminate the digestion. The cells are pipetted gently with a pipette to make a single cell suspension; the single cell suspension is transferred to a 15 mL centrifuge tube and centrifuged at 800 rpm for 4 minutes; the supernatant is discarded, 6 mL of a complete medium is added to the centrifuge tube, and mixed by pipetting; counting is carried out to prepare […] single cell suspension; the suspension is added to a 96-well plate, 90 μL per well, (wells at the outer ring are not added with the suspension), and finally each well has 3000 cells; and the 96-well plate is incubated for 24 hours in a 37° C., 5% CO2 incubator.
(§5) 1 mg of each of the compounds AAP-1, AAP-2, AAP-3, AAP-4, AAP-5, and AAP-6 of the present invention is prepared into a 10 mM stock solution by using DMSO, and stored in a refrigerator with a temperature of 4° C. Thereafter, the stock solution is diluted with a medium to a 10 μM test solution. The final concentration is 10 μM in a 96-well plate, and the test solution is diluted three folds and added to the plate. Finally, the concentrations of the test solutions of the compounds of the present invention added to the plate are 10 μM, 3.3 μM, 1.1 μM, and 0.33 μM, respectively. The 96-well plate added with the compounds is incubated for 72 hours in a 37° C., 5% CO2 incubator. 72 hours later, 10 μL of CCK-8 solution is added to each well. 40 minutes to 60 minutes later, the absorbance at 450 nm, i.e., the OD value, is measured with a microplate reader. Cell viability is calculated after measuring the OD value of each group of cells. Cell viability (%)=(OD value of the treated group−OD value of the blank group)/(OD value of the blank control group−OD value of the blank group)×100%
(§6) The blank control group is not added with the compounds of the present invention, and the other steps are the same.
(§7) Meanwhile, the positive control drugs Cis-platinum (Shanghai Boliang Biotechnology Co., Ltd.) and Aaptamine (Reference: Enrique L. Larghi, Maria L. Bohn, Teodoro S. Kaufman, Aaptamine and related products. Their isolation, chemical syntheses, and biological activity, Tetrahedron 2009, 65 (22), 4257-4282 synthesis) are used as control groups for in vitro anti-tumor activity test, and the treatment method herein is the same as that for the compounds of the present invention.

[2] = test system: human lung cancer stem cell PC9-Oct4; experiment: In vitro anti-lung cancer stem cell test (CCK-8 cell viability), PC9-Oct4; details: read-out: Half effective inhibitory concentration IC50 against tumor cells
Protocol: as §1, §2, §3, §4, §5, §6, §7

[3] = test system: Trichophyton mentaqrophytes; experiment: In vitro antifungal drug sensitivity test (microdilution method), Trichophyton mentaqrophytes; details: for MIC: Trichophyton, read-out: Antifungal activity MIC
Source text: (§8) A microdilution method (Pierce C G, Uppuluri P, Tristan A R, et al. A simple and reproducible 96-well plate-based method for the formation of fungal biofilms and its application to antifungal susceptibility testing [J]. Nat Protoc, 2008, 3 (9): 1494-1500.) is adopted, and its experimental procedure refers to the M38-A2 and M27-A2 solutions (Espinel-Ingroff A, Fothergill A, Fuller J, et al. Wild-type MIC distributions and epidemiological cutoff values for caspofungin and Aspergillus Spp. for the CLSI broth microdilution method (M38-A2 document) [J]. Antimicrobl Agents Chemother, 2011, 55 (6): 2855-2859.). Three tested strains (Candida albicans, Trichophyton mentaqrophytes and Trichophyton rubrum) are used as indicator bacteria to carry out in vitro antifungal drug sensitivity screening experiment for the compounds AAP-1-AAP6.
(§9) Control drugs: ketoconazole (purchased from Shanghai Boliang Biotechnology Co., Ltd.), Aaptamine (same as Embodiment 2).

Candida albicans = experiment: In vitro antifungal drug sensitivity test (microdilution method), Candida albicans; details: for MIC: read-out: Antifungal activity MIC
Source text: as §8, §9

Trichophyton rubrum = experiment: In vitro antifungal drug sensitivity test (microdilution method), Trichophyton rubrum; details: for MIC: read-out: Antifungal activity MIC
Source text: as §8, §9

[4] = PC9-Nanog cells, 72 hours incubation, CCK-8
[5] = PC9-Oct4 cells, 72 hours incubation, CCK-8
[6] = Trichophyton mentaqrophytes, microdilution
[7] = Homo sapiens, 72 h, PC9-Nanog cells, 72 hours incubation, CCK-8
[8] = Homo sapiens, 72 h, PC9-Oct4 cells, 72 hours incubation, CCK-8

Row | Structure (SMILES) | IC50 [1, 4] [µM] | IC50 [2, 5] [µM] | Antifungal activity MIC (Trichophyton rubrum; microdilution) [µg/mL] | MIC [3, 6] [µg/mL] | MIC (Candida albicans; microdilution) [µg/mL] | MIC (Trichophyton rubrum; microdilution) [µg/mL] | IC50 [1, 7] [µM] | IC50 [2, 8] [µM] | other results
1 | N.N.[Cl][Pt][Cl] [Cis-platinum, reference compound] | 4.53 ± 0.03 | 3.24 ± 0.05 | – | – | – | – | – | – | –
2 | COc1cc2ccnc3c2c(c1OC)NC=C3 [Aaptamine] | – | – | >30 | – | – | – | – | – | MIC [3]: > 30 µg/mL; MIC (Candida albicans): > 30 µg/mL; MIC (Trichophyton rubrum): > 30 µg/mL; IC50 ([1]; Homo sapiens, 72 h): 10.1 ± 0.17 µM; IC50 ([2]; Homo sapiens, 72 h): 8.44 ± 0.1 µM
3 | CC(=O)N1CCN(c2ccc(OCC3COC(Cn4ccnc4)(c4ccc(Cl)cc4Cl)O3)cc2)CC1 (centres unmarked) [Ketoconazole, ketoconazole, reference compound] | – | – | – | 8 (≈ 15.1 µM) | 8 (≈ 15.1 µM) | 8 (≈ 15.1 µM) | – | – | –
4 | COc1cc2ccnc3c2c(c1OC)NC=C3c1ccccc1 [AAP-1, 8,9-dimethoxy-3-phenyl-1H-benzo[de][1,6]naphthyridine] | – | – | – | 25 (≈ 82.1 µM) | > 30 | 12.5 (≈ 41.1 µM) | 1.24 ± 0.02 | 1.04 ± 0.11 | –
5 | COc1c(OC)c2c3c(nccc3c1-c1ccccc1)C=CN2 [AAP-2, 8,9-dimethoxy-7-phenyl-1H-benzo[de][1,6]naphthyridine] | – | – | – | 25 (≈ 82.1 µM) | > 30 | 25 (≈ 82.1 µM) | 6.82 ± 0.16 | 7.22 ± 0.04 | –
6 | COc1c(OC)c2c3c(nccc3c1-c1cccc(C(C)C)c1)C(c1cccc(C(C)C)c1)=CN2 [AAP-6, 3,7-bis(3-isopropyphenyl)-8,9dimethoxy-1H-benzo[de][1,6] naphthyridine] | 4.82 ± 0.12 | 3.82 ± 0.15 | >30 | – | – | – | – | – | Antifungal activity MIC [3, 6]: >30 µg/mL; Antifungal activity MIC (Candida albicans; microdilution): 25 µg/mL
